Test results as given in publication PMC6351562, “Structure, function, and inhibition of drug reactivating human gut microbial β-glucuronidases” (Scientific Reports, 2019).
Read-outs that look alike come from different tables or passages of the source.

What was measured:
[1] = molecular target: T1, Bacteroides dorei GUS (BdGUS) (Phocaeicola dorei, UniProt I9FNR0); assay: In vitro inhibition assay (pNPG hydrolysis); format: biochemical; conditions: for IC50: pNPG 900 µM
T1 sequence (I9FNR0 21-875): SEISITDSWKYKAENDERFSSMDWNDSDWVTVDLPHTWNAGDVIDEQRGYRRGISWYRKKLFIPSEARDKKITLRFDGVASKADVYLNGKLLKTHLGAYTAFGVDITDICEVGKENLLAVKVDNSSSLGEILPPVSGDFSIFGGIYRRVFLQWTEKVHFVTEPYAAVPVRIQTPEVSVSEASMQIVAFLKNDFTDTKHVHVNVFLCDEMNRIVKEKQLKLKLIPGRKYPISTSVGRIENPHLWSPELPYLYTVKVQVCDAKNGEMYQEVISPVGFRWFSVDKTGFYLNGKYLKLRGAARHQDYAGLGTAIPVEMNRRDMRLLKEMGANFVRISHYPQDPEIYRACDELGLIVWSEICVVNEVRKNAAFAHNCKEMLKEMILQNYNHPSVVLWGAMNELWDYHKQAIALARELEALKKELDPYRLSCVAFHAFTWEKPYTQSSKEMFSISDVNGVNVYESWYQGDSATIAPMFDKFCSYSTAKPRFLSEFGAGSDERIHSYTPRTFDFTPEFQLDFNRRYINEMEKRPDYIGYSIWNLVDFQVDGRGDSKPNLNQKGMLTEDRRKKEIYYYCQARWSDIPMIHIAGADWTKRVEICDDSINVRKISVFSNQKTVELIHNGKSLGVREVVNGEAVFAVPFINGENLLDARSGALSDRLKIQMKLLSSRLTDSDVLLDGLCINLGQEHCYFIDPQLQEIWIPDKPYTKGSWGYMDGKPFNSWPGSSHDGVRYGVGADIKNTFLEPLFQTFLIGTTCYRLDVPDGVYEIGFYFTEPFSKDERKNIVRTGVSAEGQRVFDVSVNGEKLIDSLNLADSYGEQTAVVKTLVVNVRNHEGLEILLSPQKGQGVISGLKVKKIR

[2] = molecular target: E. coli GUS (EcGUS) (Escherichia coli, UniProt P05804); parameters: method as in PMID 21051639, PMID 26364932, PMID 30062115; conditions: earlier work; cited from earlier work
E. coli GUS (EcGUS), sequence (P05804 whole entry): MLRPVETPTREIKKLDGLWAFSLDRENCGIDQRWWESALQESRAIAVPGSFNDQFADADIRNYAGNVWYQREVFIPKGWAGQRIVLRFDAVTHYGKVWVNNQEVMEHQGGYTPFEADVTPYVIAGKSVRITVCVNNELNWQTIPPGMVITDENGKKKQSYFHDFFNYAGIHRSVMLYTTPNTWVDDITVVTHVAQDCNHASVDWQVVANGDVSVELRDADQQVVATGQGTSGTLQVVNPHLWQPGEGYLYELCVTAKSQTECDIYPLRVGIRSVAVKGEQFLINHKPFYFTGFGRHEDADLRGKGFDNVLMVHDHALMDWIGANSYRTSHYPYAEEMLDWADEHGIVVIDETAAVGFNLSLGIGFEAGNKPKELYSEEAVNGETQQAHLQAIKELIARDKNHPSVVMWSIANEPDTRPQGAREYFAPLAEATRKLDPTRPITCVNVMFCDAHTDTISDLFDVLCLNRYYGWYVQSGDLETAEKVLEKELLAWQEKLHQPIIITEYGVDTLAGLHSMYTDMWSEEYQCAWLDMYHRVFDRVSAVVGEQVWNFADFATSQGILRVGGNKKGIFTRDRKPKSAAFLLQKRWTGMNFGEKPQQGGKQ

[3] = molecular target: T2, Bacteroides uniformis GUS (BuGUS) (Bacteroides uniformis, UniProt A0A078SUX9); assay: In vitro inhibition assay (pNPG hydrolysis); format: biochemical
T2 sequence (A0A078SUX9 32-886): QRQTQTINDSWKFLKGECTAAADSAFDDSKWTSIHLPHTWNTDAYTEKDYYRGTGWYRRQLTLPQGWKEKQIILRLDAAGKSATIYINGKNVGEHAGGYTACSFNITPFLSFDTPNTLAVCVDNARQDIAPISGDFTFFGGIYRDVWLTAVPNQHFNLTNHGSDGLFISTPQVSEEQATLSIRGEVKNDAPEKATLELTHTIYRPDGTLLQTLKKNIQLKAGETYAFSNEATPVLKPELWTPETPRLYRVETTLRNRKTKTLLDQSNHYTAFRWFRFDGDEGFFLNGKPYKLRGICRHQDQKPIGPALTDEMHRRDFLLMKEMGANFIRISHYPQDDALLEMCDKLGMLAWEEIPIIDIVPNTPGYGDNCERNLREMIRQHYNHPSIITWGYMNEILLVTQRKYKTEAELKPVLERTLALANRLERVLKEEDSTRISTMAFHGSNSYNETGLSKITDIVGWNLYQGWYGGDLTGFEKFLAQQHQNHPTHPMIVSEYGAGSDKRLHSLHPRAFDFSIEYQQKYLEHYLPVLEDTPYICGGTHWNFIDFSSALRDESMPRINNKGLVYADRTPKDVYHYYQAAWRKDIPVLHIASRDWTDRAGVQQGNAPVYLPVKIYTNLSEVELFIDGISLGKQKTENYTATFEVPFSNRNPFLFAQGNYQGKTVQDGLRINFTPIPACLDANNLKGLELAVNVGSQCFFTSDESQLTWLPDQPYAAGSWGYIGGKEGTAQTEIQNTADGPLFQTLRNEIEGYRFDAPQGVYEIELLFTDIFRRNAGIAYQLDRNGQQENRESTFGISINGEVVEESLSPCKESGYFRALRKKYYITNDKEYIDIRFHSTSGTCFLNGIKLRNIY

[4] = molecular target: Bacteroides fragilis GUS (BfGUS) (Bacteroides fragilis, UniProt Q5LIC7); parameters: method as in PMID 21051639, PMID 26364932, PMID 30062115; conditions: earlier work; cited from earlier work
Bacteroides fragilis GUS (BfGUS), sequence (Q5LIC7 whole entry): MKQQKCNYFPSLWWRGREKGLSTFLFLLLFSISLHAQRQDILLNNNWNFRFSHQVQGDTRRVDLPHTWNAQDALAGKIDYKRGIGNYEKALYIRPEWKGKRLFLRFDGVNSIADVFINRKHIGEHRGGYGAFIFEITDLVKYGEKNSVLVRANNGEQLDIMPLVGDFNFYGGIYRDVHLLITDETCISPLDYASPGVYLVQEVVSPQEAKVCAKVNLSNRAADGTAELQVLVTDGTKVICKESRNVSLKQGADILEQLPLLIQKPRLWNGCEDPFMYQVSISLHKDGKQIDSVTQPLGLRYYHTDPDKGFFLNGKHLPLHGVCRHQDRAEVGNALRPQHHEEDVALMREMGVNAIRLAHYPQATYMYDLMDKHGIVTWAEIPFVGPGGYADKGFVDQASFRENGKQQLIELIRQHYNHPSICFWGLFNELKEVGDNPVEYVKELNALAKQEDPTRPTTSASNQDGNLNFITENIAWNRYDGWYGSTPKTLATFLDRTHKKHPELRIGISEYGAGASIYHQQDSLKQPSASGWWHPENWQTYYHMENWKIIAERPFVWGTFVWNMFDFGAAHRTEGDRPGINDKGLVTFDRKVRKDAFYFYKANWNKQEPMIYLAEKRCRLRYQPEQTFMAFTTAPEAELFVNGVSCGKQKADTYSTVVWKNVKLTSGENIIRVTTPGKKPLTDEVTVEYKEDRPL

[5] = molecular target: T3, Faecalibacterium prausnitzii GUS (FpGUS) (Faecalibacterium duncaniae, UniProt C7H4D2); assay: In vitro inhibition assay (pNPG hydrolysis); format: biochemical; conditions: for IC50: pNPG 900 µM
T3 sequence (C7H4D2 1-608): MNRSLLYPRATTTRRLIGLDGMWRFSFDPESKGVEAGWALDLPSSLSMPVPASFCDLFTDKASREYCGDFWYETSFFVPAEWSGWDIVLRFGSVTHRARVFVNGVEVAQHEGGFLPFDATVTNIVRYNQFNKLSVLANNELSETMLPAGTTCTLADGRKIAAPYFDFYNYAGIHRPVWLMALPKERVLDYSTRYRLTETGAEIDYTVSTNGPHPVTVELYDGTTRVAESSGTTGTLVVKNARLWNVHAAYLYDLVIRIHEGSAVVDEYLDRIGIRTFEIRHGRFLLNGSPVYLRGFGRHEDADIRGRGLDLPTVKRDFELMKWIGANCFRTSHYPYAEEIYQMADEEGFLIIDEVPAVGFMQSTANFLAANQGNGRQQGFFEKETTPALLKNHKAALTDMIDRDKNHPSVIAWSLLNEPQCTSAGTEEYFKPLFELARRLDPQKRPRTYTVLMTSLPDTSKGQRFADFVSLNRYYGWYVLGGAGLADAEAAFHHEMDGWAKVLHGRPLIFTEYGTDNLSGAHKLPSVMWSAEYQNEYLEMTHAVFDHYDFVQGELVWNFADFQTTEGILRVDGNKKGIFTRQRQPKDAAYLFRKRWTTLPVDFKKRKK

[6] = molecular target: T4, Streptococcus agalactiae GUS (SaGUS) (Streptococcus agalactiae serotype V, UniProt Q8E0N2); assay: In vitro inhibition assay (pNPG hydrolysis); format: biochemical; conditions: for IC50: pNPG 900 µM
T4 construct: 6x His; made in house
T4 sequence (Q8E0N2 whole entry): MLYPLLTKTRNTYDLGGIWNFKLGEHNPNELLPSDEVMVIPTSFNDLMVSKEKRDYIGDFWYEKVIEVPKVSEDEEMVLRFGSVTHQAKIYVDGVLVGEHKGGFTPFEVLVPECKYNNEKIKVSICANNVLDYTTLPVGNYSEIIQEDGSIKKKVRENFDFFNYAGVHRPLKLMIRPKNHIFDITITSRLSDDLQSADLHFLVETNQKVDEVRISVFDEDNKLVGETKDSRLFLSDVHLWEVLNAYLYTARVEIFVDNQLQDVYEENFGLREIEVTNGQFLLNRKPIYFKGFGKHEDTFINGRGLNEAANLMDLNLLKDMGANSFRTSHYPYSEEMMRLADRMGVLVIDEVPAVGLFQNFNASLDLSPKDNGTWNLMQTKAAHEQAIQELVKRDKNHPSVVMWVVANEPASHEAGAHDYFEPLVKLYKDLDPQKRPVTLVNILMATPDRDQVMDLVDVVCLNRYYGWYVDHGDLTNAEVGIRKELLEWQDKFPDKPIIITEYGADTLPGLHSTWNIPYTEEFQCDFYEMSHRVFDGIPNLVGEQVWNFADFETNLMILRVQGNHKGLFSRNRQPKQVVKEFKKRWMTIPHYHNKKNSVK

[7] = molecular target: Clostridium perfringens GUS (CpGUS) (Clostridium perfringens, UniProt Q8VNV4); assay: biochemical; format: biochemical
[8] = Inhibitor 1 (IC50, nM) pH 6.5, pH 6.5
[9] = Inhibitor 1 (IC50, nM) pH 7.5, pH 7.5
[10] = 100 µM, pH 6.5, read-out: inhibition at 100 µM UNC10201652
[11] = pH 6.5, read-out: UNC10201652 (IC50, nM) pH 6.5
[12] = pH 7.5, 1 hour end point, read-out: UNC10201652 (IC50, nM) pH 7.5

For `CCOc1ccc(NC(=S)N(CCO)Cc2cc3cc(C)cc(C)c3[nH]c2=O)cc1` [Inhibitor 1], the IC50 [1, 8] is listed as over 100000 nM, the IC50 [1, 9] is listed as over 100000 nM and the “inhibition of EcGUS (in words)” value [2] is listed as “potent”. For the same compound, the IC50 [3] was over 100000 nM, the IC50 ([3]; read-out: Inhibitor 1 (IC50, nM) pH 7.5, pH 7.5, pNPG 900 µM) was over 100000 nM and the “inhibition of BfGUS (in words)” value [4] was “did not inhibit”. The IC50 [5, 8] was over 100000 nM, the IC50 [5, 9] was over 100000 nM and the IC50 [6, 8] was over 25000 nM. For the same compound, the IC50 [6, 9] was over 25000 nM, the inhibition at 100 µM ([6]; read-out: inhibition at 100 µM Inhibitor 1, 100 µM, pH 6.5 and 7.5) was at least 80% and the IC50 ([7]; Inhibitor 1 (IC50, nM) pH 6.5) was over 100000 nM. It also gave an IC50 ([7]; Inhibitor 1 (IC50, nM) pH 7.5) of over 100000 nM.

With `C1CCc2c(c(N3CCOCC3)nc3sc4c(N5CCNCC5)nnnc4c23)C1` [UNC10201652] the inhibition at 100 µM [1, 10] was under 80%, the IC50 [1, 11] was over 100000 nM and the IC50 [1, 12] was over 25000 nM. For the same compound, the “inhibition of EcGUS (in words)” value [2] was “potent”, the “inhibition (in words)” value ([3]; UNC10201652, text in picture of Fig. 7c) was “No Inhibition” and the IC50 ([3]; pH 7.5, pNPG 900 µM, read-out: UNC10201652 (IC50, nM) pH 7.5) was over 100000 nM. The IC50 ([3]; read-out: UNC10201652 (IC50, nM) pH 6.5) was over 100000 nM, the “inhibition of BfGUS (in words)” value [4] was “did not inhibit” and the inhibition at 100 µM [5, 10] was under 80%. For the same compound, the IC50 [5, 11] was over 100000 nM, the IC50 [5, 12] was over 3000 nM and the IC50 ([6]; pH 6.5, 1 hour end point, read-out: UNC10201652 (IC50, nM) pH 6.5) was 450 ± 30 nM. For the same compound, the IC50 [6, 12] was 133 ± 3 nM, the “decrease in potency from pH 7.5 to pH 6.5” value [7] was 6 fold and the IC50 ([7]; IC50) was 26 to 160 nM. For the same compound, the IC50 [7, 11] was 160 ± 10 nM and the IC50 ([7]; pH 7.5, read-out: UNC10201652 (IC50, nM) pH 7.5) was 26 ± 3 nM.
